Results from patent US9200008B2 (ASKA PHARMACEUTICAL CO., LTD., priority 2010, dated 2015).

Legend:
[1] = system: Human prostate cancer cell lines (PC-3 cells); test: Measurement of cell death-inducing activity (Test Example 1); type: cell-based; conditions: PC-3, 48 h, 48 hours after addition, tested at 10, 1, 0.1, 0.025 and 0.00625 μmol/L, qualitative evaluation of 10 fields, read-out: Concentration showing the cell death-inducing activity (cell death-inducing rate not less than 40%)
How it was run: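 PC-3 cells seeded at 1×10^5 cells/well and grown 48 h at 37 °C, 5% CO2, then exposed to compound at 10, 1, 0.1, 0.025 and 0.00625 μmol/L (DMSO control) for a further 48 h. Activity was called where cell death-inducing rate was not less than 40%.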

[2] = system: Human prostate cancer cell lines (PC-3 cells); test: Calculation of IC50 value, cell proliferation inhibitory activity by XTT assay, PC-3 cells (Test Example 2); type: cell-based; conditions: 72 hours culture with test substance, read-out: Cell proliferation inhibitory activity (IC50 value calculated from XTT assay), concentration showing 50% inhibitory activity, human prostate cancer cell lines (PC-3)
Description: Human prostate cancer cell lines (PC-3 cells) and human fibrosarcoma cell lines (HT1080 cells) were seeded to 96-well microplates so as to provide a density of 1,300 cells/well and that of 3,100 cells/well, respectively. In the presence of 5% CO2 at 37° C., the PC-3 cells and the HT1080 cells were cultured for 48 hours and 24 hours, respectively. Thereafter, each one of test substances was added to each well. As a control of a medical agent, DMSO was added. After the addition, both cells were continuously cultured for 72 hours. Then, an XTT labeling reagent containing 1 mg/mL of sodium 3′-[1-(phenylaminocarbonyl)-3,4-tetrazolium]-bis(4-methoxy-6-nitro)benzenesulfonate hydrate (XTT) and an electronic coupling reagent containing 1.25 mM N-methyl dibenzopyrazine methyl sulfate (PMS) were mixed at a ratio of 50:1 to give an XTT labeling mixture. The XTT labeling mixture was added to each well in an amount of 50 μL per well, and the cells were cultured for another 4 hours. A culture solution containing a test substance was used as a blank, and the absorbencies of a culture solution containing the XTT labeling mixture at a measurement wavelength (450 nm) and a control wavelength (650 nm) were measured by a plate reader. The difference between these absorbencies was evaluated as an activity of dehydrogenase of mitochondria derived from living cells. With respect to the following model formula of sigmoid curve, the convergent solution of each variable (gain, range, base and α) that minimize the residual sum of squares of the difference between these absorbencies and regressive prediction was determined, and then IC50 (=e^α) of each test substance was calculated.
The IC50 values of the compounds represented by the formula (1) or the salts thereof on two cancer cell lines according to the method of Test Example 2 were calculated, and the results are shown in Table A.

SMILES	minimal effective concentration [1] [µM]	IC50 [2] [nM]
CCn1cc2cc(COC(=O)Nc3sc(-c4ccc(C)cc4OC)nc3C)ccc2n1 [Example 9-155]	0.025	6.77
CCn1cnc2cc(COC(=O)Nc3sc(-c4ccccc4OC)nc3C)ccc21 [Example 9-57]	0.025	2.17
CCn1cnc2cc(NC(=O)OCc3cc(-c4ccc(C)cc4OC)nn3C)ccc21 [Example 13-90]	0.00625	0.43
CCCOc1ccccc1-c1nc(C)c(C(=O)N/N=C/c2cc(C)c(O)c(C)c2)s1 [Example 23-55]	1	
COc1ccc(/C=N/NC(=O)c2sc(-c3ccc(Cl)cc3Cl)nc2C)cc1O [Example 23-1, 2-(2,4-Dichlorophenyl)-4-methylthiazole-5-carboxylic acid[1-(3-hydroxy-4-methoxyphenyl)methylidene]hydrazide]	10	
CCn1cnc2cc(NC(=O)OCc3sc(-c4ccc(Cl)cc4OC)nc3C)ccc21 [Example 13-13]	0.1	
Cc1nc(-c2ccc(F)cc2Cl)sc1COC(=O)Nc1ccc2c(c1)nc1n2CCC1 [Example 13-30]	0.1	
Cc1cccc(-c2nc(C)c(C(=O)N/N=C/c3ccc4c(c3)OCO4)s2)c1C [Example 23-43]	1	
CCn1nc(-c2ccc(F)cc2OC)cc1NC(=O)OCc1ccc2c(c1)nc1n2CCOC1 [Example 9-246]	0.1	
COc1ccc(NC(=O)OCc2cc(-c3ccc(F)cc3OC)nn2C)cc1 [Example 13-70]	10	
Cc1ccc(-c2nc(C)c(COC(=O)Nc3ccc4nn(C)cc4c3)s2)c(C)c1 [Example 13-48]	0.1	
COc1ccc(/C=N/NC(=O)c2sc(-c3sc(C)nc3C)nc2C)cc1O [Example 23-134]	1	
COc1cc(Cl)ccc1-c1nscc1NC(=O)OCc1ccc2c(c1)ncn2C [Example 45-5]	0.1	
CCc1nc(-c2ccccc2OC)sc1NC(=O)OCc1ccc2c(c1)ncn2C [Example 9-161]	0.025	
Cc1ccccc1-c1ncc(C(=O)N/N=C/c2ccc3c(c2)OCO3)s1 [Example 23-52]	1	
COc1ccc(/C=N/NC(=O)c2sc(-c3ccccc3Cl)nc2C)c(Cl)c1O [Example 23-4]	0.1	
Cc1nc(-c2ccc(Cl)cc2)sc1C(=O)N/N=C/c1ccc2c(c1)CCO2 [Example 23-152]	10	
Cc1cc(/C=N/NC(=O)c2cnc(-c3ccccc3Cl)s2)cc(C)c1O [Example 23-143]	1	
CCn1nc(-c2ccc(F)cc2OC)cc1NC(=O)OCc1ccc2c(c1)ncn2CC [Example 9-220]	0.1	
CCc1nc(-c2ccc(Cl)cc2C)sc1NC(=O)OCc1ccc2c(c1)nc1n2CCC1 [Example 9-349]	0.025	
CCn1nc(-c2ccc(F)cc2OC)cc1COC(=O)Nc1ccc2c(cnn2C)c1 [Example 13-126]	10	
Cc1ccc(-c2cc(NC(=O)OCc3ccc4c(cnn4C)c3)n(C)n2)c(C)c1 [Example 9-285]	0.1	
Cc1cc(Cl)ccc1-c1nc(C)c(NC(=O)OCc2ccc3c(c2)ncn3C)s1 [Example 9-49]	0.00625	
Cc1ccc(-c2nc(C)c(COC(=O)Nc3ccc4ncsc4c3)s2)c(C)c1 [Example 41-1, Benzothiazol-6-ylcarbamic acid 2-(2,4-dimethylphenyl)-4-methylthiazol-5-ylmethyl ester]	10	
COc1cc(C)ccc1-c1cc(COC(=O)Nc2ccc3c(c2)ncn3C)sn1 [Example 47-3]	0.00625	
COc1cc(F)ccc1-c1nc(C)c(NC(=O)OCc2ccc3c(c2)nc(C)n3C)s1 [Example 9-75]	0.1	
Cc1cc(Cl)ccc1-c1nc(C)c(NC(=O)OCc2ccc3c(c2)nc2n3CCOC2)s1 [Example 9-98]	0.00625	

SMILES	minimal effective concentration [1] [µM]	IC50 [2] [nM]
CCc1ccccc1-c1nc(C)c(NC(=O)OCc2ccc3c(c2)nc2n3CCOC2)s1 [Example 9-90]	0.1	
CCn1cc2cc(NC(=O)OCc3sc(-c4ccc(C)cc4C)nc3C)ccc2n1 [Example 13-53]	0.1	6.35
COc1ccccc1-c1nc(C)c(NC(=O)OCc2ccc3c(c2)ncn3C)s1 [Example 9-37]	0.025	
COc1cccc(/C=N/NC(=O)c2sc(-c3ccc(Cl)cc3OC)nc2C)c1 [Example 23-80]	1	
CCN(Cc1ccc(OC)cc1)NC(=O)c1sc(-c2ccc(Cl)cc2C)nc1C [Example 16-15]	1	
CCn1nc(-c2ccc(C)cc2OC)cc1COC(=O)Nc1ccc2c(c1)nc1n2CCC1 [Example 13-113]	0.00625	
Cc1cc(Cl)ccc1-c1nc(C)c(NC(=O)OCc2ccc3c(c2)nc2n3CCCC2)s1 [Example 9-115]	0.1	
COc1ccc(/C=N/NC(=O)c2cnc(-c3ccccc3C)s2)cc1O [Example 23-50]	0.1	
Cc1cc(/C=N/NC(=O)c2oc(-c3ccc(Cl)cc3)nc2C)cc(C)c1O [Example 26-1, 2-(4-Chlorophenyl)-4-methyloxazole-5-carboxylic acid[N′-(4-hydroxy-3,5-dimethylphenyl)methylidene]hydrazide]	10	
O=C(N/N=C/c1ccc2c(c1)nc1n2CCOC1)c1cc(-c2ccc(Cl)cc2Cl)ns1 [Example 49-3]	10	
CCc1nc(-c2ccc(Cl)cc2C)sc1NC(=O)OCc1ccc2c(c1)nc1n2CCOC1 [Example 9-377]	0.025	
CCN(Cc1ccc(OC)cc1)NC(=O)c1cc(-c2ccc(Cl)cc2OC)n[nH]1 [Example 18-2, 5-(4-Chloro-2-methoxyphenyl)-2H-pyrazole-3-carboxylic acid N′-ethyl-N′-(4-methoxybenzyl)hydrazide]	1	
CCn1cc2cc(NC(=O)OCc3sc(-c4ccc(F)cc4C)nc3C)ccc2n1 [Example 13-54]	0.1	
Cc1ccc(/C=N/NC(=O)c2sc(-c3ccc(Cl)cc3)nc2C)cc1O [Example 23-35]	10	
Cc1nc(-c2sccc2Cl)sc1COC(=O)Nc1ccc2c(c1)nc1n2CCOC1 [Example 13-61]	10	
COc1ccc(/C=N/NC(=O)c2sc(-c3ncccc3Cl)nc2C)cc1O [Example 23-139]	1	
CCc1nc(-c2ccc(Cl)cc2OC)sc1NC(=O)OCc1ccc2c(c1)nc1n2CCC1 [Example 9-170]	0.025	
COc1ccc(/C=N/NC(=O)c2sc(-c3ccc(Cl)cc3OC)nc2C)cn1 [Example 23-85]	1	
COc1cc(C)ccc1-c1nc(C)c(NC(=O)OCc2ccc3sc(C)nc3c2)s1 [Example 37-2]	1	
CCc1nc(-c2ccc(F)cc2C)sc1NC(=O)OCc1ccc2c(cnn2CC)c1 [Example 9-361]	0.1	
CCn1nc(-c2ccc(C)cc2OC)cc1NC(=O)OCc1ccc2c(c1)ncn2C [Example 9-227]	0.00625	
COc1cc(Cl)ccc1-c1nc(C)c(CC(=O)N/N=C/c2cc(C)c(O)c(C)c2)s1 [Example 29-2, [2-(4-Chloro-2-methoxyphenyl)-4-methylthiazol-5-yl]acetic acid[1-(4-hydroxy-3,5-dimethylphenyl)methylidene]hydrazide]	1	
Cn1nc2c(c1NC(=O)OCc1ccc3c(c1)ncn3C)COc1ccccc1-2 [Example 9-320]	10	
CCn1cnc2cc(NC(=O)OCc3sc(-c4ccc(F)cc4C)nc3C)ccc21 [Example 13-16]	0.025	
Cc1cccc(-c2c[nH]c(C(=O)N/N=C/c3cc(C)c(O)c(C)c3)c2)c1C [Example 24-1, 4-(2,3-Dimethylphenyl)-1H-pyrrole-2-carboxylic acid [1-(4-hydroxy-3,5-dimethylphenyl)methylidene]hydrazide]	1	
Cc1ccccc1-c1cc(C(=O)N/N=C/c2cc(C)c(O)c(C)c2)sn1 [Example 27-10]	0.1	
Cc1cccc(-c2nc(C)c(C(=O)N/N=C/c3ccc(OC(F)F)c(O)c3)s2)c1C [Example 23-117]	1	
